Reference: PubChem BioAssay AID212 (DTP/NCI, 2004)
Where “and” joins values, the source holds several entries; their conditions need not be identical. Equal entries are not always repeated. Results filed as inconclusive are left out.

Test system: BDF1 mice, colon carcinoma 38 sc, T/C %
Experiment: NCI In Vivo Anticancer Drug Screen. Data for tumor model Colon Carcinoma 38 (subcutaneous) in B6D2F1 (BDF1) mice
Conditions: endpoint: median tumor weight (est.), higher = larger tumour
In short: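 T/C readout: treated group (T) measurement over vehicle control group (C) measurement. Endpoint is survival or tumor size in mice bearing a transplanted tumor.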

[1] = dose: 6.25 mg/kg/injection, schedule: Q07DX002 (ip), vehicle: saline with Tween-80
[2] = dose: 25.0 mg/kg/injection, schedule: Q07DX002 (ip), vehicle: saline with Tween-80
[3] = dose: 50.0 mg/kg/injection, schedule: Q07DX002 (ip), vehicle: saline with Tween-80
[4] = dose: 3.12 mg/kg/injection, schedule: Q07DX002 (ip), vehicle: saline with Tween-80
[5] = dose: 12.5 mg/kg/injection, schedule: Q07DX002 (ip), vehicle: saline with Tween-80
[6] = dose: 100.0 mg/kg/injection, schedule: Q07DX002 (ip), vehicle: saline with Tween-80
[7] = dose: 200.0 mg/kg/injection, schedule: Q07DX002 (ip), vehicle: saline with Tween-80
[8] = dose: 400.0 mg/kg/injection, schedule: Q07DX002 (ip), vehicle: saline with Tween-80

In the case of CC(=O)OC(C)C1C2=C(C(=O)CC1(C)O)C(=O)c1c(ccc(-c3ccc4c(c3O)C(=O)C3=C(C4=O)C(C(C)OC(C)=O)C(C)(O)CC3=O)c1O)C2=O (configuration not stated), the T/C (dose: 1.85 mg/kg/injection, schedule: Q07DX002 (ip), vehicle: saline with Tween-80) is reported as 155 % of control, the T/C (dose: 3.75 mg/kg/injection, schedule: Q07DX002 (ip), vehicle: saline with Tween-80) is reported as 109 % of control and the T/C (dose: 7.5 mg/kg/injection, schedule: Q07DX002 (ip), vehicle: saline with Tween-80) is reported as 107 % of control. For the same compound, the T/C (dose: 30.0 mg/kg/injection, schedule: Q07DX002 (ip), vehicle: saline with Tween-80) was 122 % of control.

With O=Cc1ccc([N+](=O)[O-])s1 the T/C [1] was 124 % of control and 108 % of control, the T/C [2] was 108 % of control and the T/C [3] was 57 % of control.

In the case of c1ccc2c(c1)nnn1c3cnccc3nc21, the T/C [4] is reported as 63 % of control and 88 % of control and the T/C [2] is reported as 82 % of control and 85 % of control.

CCOC(=O)c1ccc(NC(=O)Nc2nncs2)cc1 was tested, and the T/C (dose: 12.5 mg/kg/injection, schedule: Q07DX002 (ip), vehicle: distilled water + Tween-80) was 194 % of control, the T/C (dose: 25.0 mg/kg/injection, schedule: Q07DX002 (ip), vehicle: distilled water + Tween-80) was 90 % of control and the T/C (dose: 50.0 mg/kg/injection, schedule: Q07DX002 (ip), vehicle: distilled water + Tween-80) was 94 % of control.

ClCCN(CCCl)c1ccc(/C=C/c2ccccc2)cc1 was tested, and the T/C (dose: 50.0 mg/kg/injection, schedule: Q07DX002 (ip), vehicle: Klucel (hydroxypropylcellulose) (HPC)) was 71 % of control, the T/C (dose: 100.0 mg/kg/injection, schedule: Q07DX002 (ip), vehicle: Klucel (hydroxypropylcellulose) (HPC)) was 116 % of control and the T/C (dose: 200.0 mg/kg/injection, schedule: Q07DX002 (ip), vehicle: Klucel (hydroxypropylcellulose) (HPC)) was 72 % of control. For the same compound, the T/C (dose: 400.0 mg/kg/injection, schedule: Q07DX002 (ip), vehicle: Klucel (hydroxypropylcellulose) (HPC)) was 71 % of control and the T/C (dose: 800.0 mg/kg/injection, schedule: Q07DX002 (ip), vehicle: Klucel (hydroxypropylcellulose) (HPC)) was 79 % of control.

In the case of O/N=C/c1ccccc1O.O/N=C/c1ccccc1O.[Cu], the T/C [4] is reported as 89 % of control and 100 % of control, the T/C [1] is reported as 92 % of control and 100 % of control and the T/C [5] is reported as 102 % of control and 108 % of control. For the same compound, the T/C [2] was 87 % of control and 104 % of control.

With Nc1nccc2c1ncn2C1OC(CO)C(O)C1O (configuration not stated) the T/C (dose: 4.6 mg/kg/injection, schedule: Q03HX024 (ip), vehicle: saline with Tween-80) was 103 % of control, the T/C (dose: 9.3 mg/kg/injection, schedule: Q03HX024 (ip), vehicle: saline with Tween-80) was 114 % of control and the T/C (dose: 18.7 mg/kg/injection, schedule: Q03HX024 (ip), vehicle: saline with Tween-80) was 82 % of control and 92 % of control. The T/C (dose: 75.0 mg/kg/injection, schedule: Q03HX024 (ip), vehicle: saline with Tween-80) was 93 % of control.

In the case of Oc1ccc(SCc2ccc(NCc3ccccc3)cc2)cc1, the T/C (dose: 12.5 mg/kg/injection, schedule: Q07DX002 (ip), vehicle: DMSO) is reported as 75 % of control, the T/C (dose: 25.0 mg/kg/injection, schedule: Q07DX002 (ip), vehicle: DMSO) is reported as 82 % of control and the T/C (dose: 50.0 mg/kg/injection, schedule: Q07DX002 (ip), vehicle: DMSO) is reported as 85 % of control. The T/C (dose: 100.0 mg/kg/injection, schedule: Q07DX002 (ip), vehicle: DMSO) was 109 % of control and the T/C (dose: 200.0 mg/kg/injection, schedule: Q07DX002 (ip), vehicle: DMSO) was 82 % of control.

In the case of CC(C)=CCNc1ncnc2c1ncn2C1OC(CO)C(O)C1O (configuration not stated), the T/C [5] is reported as 61 % of control, the T/C (dose: 12.5 mg/kg/injection, schedule: Q07DX002 (ip), vehicle: saline) is reported as 102 % of control and the T/C (dose: 25.0 mg/kg/injection, schedule: Q07DX002 (ip), vehicle: saline) is reported as 89 % of control. The T/C [3] was 96 % of control, the T/C [6] was 44 % of control and the T/C (dose: 100.0 mg/kg/injection, schedule: Q07DX002 (ip), vehicle: saline) was 97 % of control. The T/C [7] was 75 % of control.

With CC(/C=C/c1ccccc1)=Nc1ccccc1 the T/C [2] was 40 % of control, the T/C [3] was 110 % of control and the T/C [6] was 92 % of control. The T/C [8] was 185 % of control.

In the case of ClC1=C(Cl)C(Cl)=C(Cl)C1=Cc1ccccc1, the T/C (dose: 0.78 mg/kg/injection, schedule: Q07DX002 (ip), vehicle: saline with Tween-80) is reported as 119 % of control, the T/C (dose: 1.56 mg/kg/injection, schedule: Q07DX002 (ip), vehicle: saline with Tween-80) is reported as 95 % of control and the T/C [1] is reported as 114 % of control. The T/C [5] was 114 % of control and the T/C [2] was 58 % of control.

CCC(=O)N(C)[C@@H](C)C(=O)O[C@H]1CC(=O)N(C)c2cc(cc(OC)c2Cl)C/C(C)=C/C=C[C@@H](OC)[C@@]2(O)C[C@H](OC(=O)N2)[C@@H](C)[C@@H]2O[C@@]12C was tested, and the T/C (dose: 7.5 micrograms/kg/injection, schedule: Q07DX002 (ip), vehicle: saline + alcohol) was 62 % of control, the T/C (dose: 30.0 micrograms/kg/injection, schedule: Q07DX002 (ip), vehicle: saline + alcohol) was 84 % of control and the T/C (dose: 120.0 micrograms/kg/injection, schedule: Q07DX002 (ip), vehicle: saline + alcohol) was 108 % of control.

COC1CC(C)C(OC)C2=CC(=O)C=C(NC(=O)/C(C)=C/C=C\C(C)C(OC(N)=O)/C(C)=C\C(C)C1OC)C2=O (configuration not stated) was tested, and the T/C (dose: 3.13 mg/kg/injection, schedule: Q07DX002 (ip), vehicle: saline + alcohol) was 111 % of control, the T/C (dose: 6.25 mg/kg/injection, schedule: Q07DX002 (ip), vehicle: saline + alcohol) was 110 % of control and the T/C (dose: 12.5 mg/kg/injection, schedule: Q07DX002 (ip), vehicle: saline + alcohol) was 105 % of control. The T/C (dose: 25.0 mg/kg/injection, schedule: Q07DX002 (ip), vehicle: saline + alcohol) was 110 % of control and the T/C (dose: 50.0 mg/kg/injection, schedule: Q07DX002 (ip), vehicle: saline + alcohol) was 102 % of control.

In the case of O=C(O)C1CC(c2ccccc2)=NN1c1ccccc1 (configuration not stated), the T/C (dose: 25.0 mg/kg/injection, schedule: Q07DX002 (ip), vehicle: water) is reported as 114 % of control and 103 % of control, the T/C (dose: 100.0 mg/kg/injection, schedule: Q07DX002 (ip), vehicle: water) is reported as 65 % of control and the T/C (dose: 200.0 mg/kg/injection, schedule: Q07DX002 (ip), vehicle: water) is reported as 56 % of control and 69 % of control.

O=C(O)CC(=O)O.[NH-]CC[NH-].[Pt+2] was tested, and the T/C (dose: 14.1 mg/kg/injection, schedule: Q07DX002 (ip), vehicle: dextrose) was 71 % of control and 85 % of control, the T/C (dose: 28.1 mg/kg/injection, schedule: Q07DX002 (ip), vehicle: dextrose) was 69 % of control and the T/C (dose: 28.2 mg/kg/injection, schedule: Q07DX002 (ip), vehicle: dextrose) was 71 % of control and 75 % of control. The T/C (dose: 56.2 mg/kg/injection, schedule: Q07DX002 (ip), vehicle: dextrose) was 42 % of control.

In the case of CN1CCN(c2ccc([N+](=O)[O-])c3no[n+]([O-])c23)CC1, the T/C (dose: 5.0 mg/kg/injection, schedule: Q07DX002 (ip), vehicle: saline with Tween-80) is reported as 105 % of control, the T/C (dose: 20.0 mg/kg/injection, schedule: Q07DX002 (ip), vehicle: saline with Tween-80) is reported as 77 % of control and the T/C (dose: 40.0 mg/kg/injection, schedule: Q07DX002 (ip), vehicle: saline with Tween-80) is reported as 68 % of control.

For O=C(Nc1nncs1)c1ccncc1, the T/C [5] was 93 % of control and 98 % of control, the T/C [3] was 91 % of control and 96 % of control and the T/C [6] was 102 % of control. The T/C [7] was 81 % of control and the T/C [8] was 69 % of control and 93 % of control.

With C/C=C/C=C1/OC(C)=C(C(C)=O)C1=O the T/C [2] was 59 % of control and 84 % of control, the T/C [7] was 54 % of control and 57 % of control and 69 % of control and the T/C [8] was 37 % of control and 62 % of control. For the same compound, the T/C (dose: 800.0 mg/kg/injection, schedule: Q07DX002 (ip), vehicle: saline with Tween-80) was 100 % of control.

In the case of C/C=C/c1cc2n(c1)C(=O)c1cc(OC3OC(C)C(NC)C(C)(O)C3O)c(C)c(O)c1NC2O (configuration not stated), the T/C (dose: 32.0 micrograms/kg/injection, schedule: Q07DX002 (ip), vehicle: saline) is reported as 42 % of control.

With Cc1ccc(N)c(N)c1 the T/C [2] was 80 % of control, the T/C [3] was 89 % of control and the T/C [6] was 101 % of control. The T/C [7] was 114 % of control and the T/C [8] was 96 % of control.

For CCCCCCCCCCCCCCC/C([O-])=N/[N+](C)(C)CC(C)O (configuration not stated), the T/C (dose: 25.0 mg/kg/injection, schedule: Q01DX001 (ip), vehicle: saline) was 164 % of control, the T/C (dose: 200.0 mg/kg/injection, schedule: Q01DX001 (ip), vehicle: saline) was 120 % of control and the T/C (dose: 400.0 mg/kg/injection, schedule: Q01DX001 (ip), vehicle: saline) was 85 % of control.

With C=C1C(=O)OC2/C=C(\C)CC(O)/C=C(/CO)CC(OC(=O)/C(C)=C/C)C12 (configuration not stated) the T/C (dose: 7.5 mg/kg/injection, schedule: Q07DX002 (ip), vehicle: saline + alcohol) was 223 % of control, the T/C (dose: 30.0 mg/kg/injection, schedule: Q07DX002 (ip), vehicle: saline + alcohol) was 168 % of control and the T/C (dose: 60.0 mg/kg/injection, schedule: Q07DX002 (ip), vehicle: saline + alcohol) was 441 % of control.

In the case of C[Si](C)(C)O/C=C1\CCCCC1=O, the T/C [3] is reported as 73 % of control and 91 % of control and the T/C [6] is reported as 79 % of control and 100 % of control.
